Source: patent US20260242391A1 (priority 2023, published 2026)

How the values were obtained:
in vitro = conditions: human
HL-60 = HL-60 differentiation potency; type: cell-based; conditions: Homo sapiens

| Structure (SMILES) | IC50 (in vitro) | EC50 (HL-60) |
| --- | --- | --- |
| C[C@H]1[C@H](NCCS(=O)(=O)N(C)C)O[C@@H]2O[C@@]3(C)CC[C@H]4[C@H](C)CC[C@@H]1[C@@]24OO3 [Compound 59, N,N-dimethyl-2-(((3R,5aS,6R, 8aS,9R,10R,12R, 12aR)-3,6,9-trimethyldeca-hydro-12H-3,12-epoxy[1,2]dioxepino[4,3-i]isochromen-10-yl)amino) ethane-1-sulfonamide] | 11 µM | 9.63 µM |
| C[C@H]1[C@@H](OCc2ccc(-c3nn[nH]n3)cc2)O[C@@H]2O[C@@]3(C)CC[C@H]4[C@H](C)CC[C@@H]1[C@@]24OO3 [Compound 38, 5-(4-((((3R,5aS,6R,8aS, 9R,10S,12R, 12aR)-3,6,9-trimethyldeca-hydro-12H-3,12-epoxy[1,2]dioxepino[4,3-i]isochromen-10-yl)oxy)methyl)phenyl)-2H-tetrazole] | 13.1 µM | 0.616 µM |
| Cc1cc(CO[C@H]2O[C@@H]3O[C@@]4(C)CC[C@H]5[C@H](C)CC[C@@H]([C@H]2C)[C@@]35OO4)ccc1C(=O)O [Compound 41, 2-methyl-4-((((3R,5aS,6R, 8aS,9R,10S,12R, 12aR)-3,6,9-trimethyldeca-hydro-12H-3,12-epoxy[1,2]dioxepino[4,3-i]isochromen-10-yl)oxy)methyl) benzoic acid] | > 20 µM | 0.735 µM |
| C[C@H]1[C@@H](OC[C@H]2CC[C@@H](C(=O)O)CC2)O[C@@H]2O[C@@]3(C)CC[C@H]4[C@H](C)CC[C@@H]1[C@@]24OO3 [Compound 11, (1R,4s)-4-((((3R,5aS,6R,8aS, 9R,10S,12R, 12aR)-3,6,9-trimethyldeca-hydro-12H-3,12-epoxy[1,2]dioxepino[4,3-i]isochromen-10-yl)oxy)methyl) cyclohexane-1-carboxylic acid] | > 20 µM | 0.0874 µM |
| C[C@H]1[C@H](OCc2ccc3c(c2)OC(F)(F)O3)O[C@@H]2O[C@@]3(C)CC[C@H]4[C@H](C)CC[C@@H]1[C@@]24OO3 [Compound 6, (3R,5aS,6R,8aS, 9R,10R,12R, 12aR)-10-((2,2-difluorobenzo [d][1,3]dioxol-5-yl)methoxy)-3,6,9-trimethyldeca-hydro-12H-3,12-epoxy[1,2] dioxepino[4,3-i] isochromene] | 0.05 µM | 0.0532 µM |
| C[C@H]1[C@H](NCCS(=O)(=O)C(F)(F)F)O[C@@H]2O[C@@]3(C)CC[C@H]4[C@H](C)CC[C@@H]1[C@@]24OO3 [Compound 28, (3R,5aS,6R,8aS, 9R,10R,12R, 12aR)-3,6,9-trimethyl-N-(2-((trifluoromethyl)sulfonyl)ethyl) decahydro-12H-3,12-epoxy[1,2] dioxepino[4,3-i] isochromen-10-amine] | 0.446 µM | 0.256 µM |
| C[C@H]1[C@@H](OCCCc2ccc(C(=O)O)cc2)O[C@@H]2O[C@@]3(C)CC[C@H]4[C@H](C)CC[C@@H]1[C@@]24OO3 [Compound 10, 4-(3-(((3R,5aS,6R, 8aS,9R,10S,12R, 12aR)-3,6,9-trimethyldeca-hydro-12H-3,12-epoxy[1,2]dioxepino[4,3-i]isochromen-10-yl)oxy)propyl) benzoic acid] | > 10 µM | 0.0638 µM |
| C[C@H]1[C@H](N2CC(S(C)(=O)=O)C2)O[C@@H]2O[C@@]3(C)CC[C@H]4[C@H](C)CC[C@@H]1[C@@]24OO3 [Compound 4, 3-(methylsulfonyl)-1-((3R,5aS,6R, 8aS,9R,10R, 12R,12aR)-3,6,9-trimethyldeca-hydro-1H-3,12-epoxy[1,2]dioxepino[4,3-i]isochromen-10-yl)azetidine] | 0.101 µM | 0.0428 µM |
| C[C@H]1[C@H](OCc2ccc(C#N)cc2)O[C@@H]2O[C@@]3(C)CC[C@H]4[C@H](C)CC[C@@H]1[C@@]24OO3 [Compound 7, 4-((((3R,5aS,6R, 8aS,9R,10R,12R, 12aR)-3,6,9-trimethyldeca-hydro-12H-3,12-epoxy[1,2]dioxepino[4,3-i]isochromen-10-yl)oxy)methyl) benzonitrile] | 0.192 µM | 0.0546 µM |
| Cc1cc(CC(=O)O)ccc1O[C@H]1O[C@@H]2O[C@@]3(C)CC[C@H]4[C@H](C)CC[C@@H]([C@H]1C)[C@@]24OO3 [Compound 8, 2-(3-methyl-4-(((3R,5aS,6R,8aS, 9R,10S,12R, 12aR)-3,6,9-trimethyldeca-hydro-12H-3,12-epoxy[1,2]dioxepino[4,3-i]isochromen-10-yl)oxy)phenyl) acetic acid] | > 20 µM | 0.0577 µM |

Further lines, results first:

| IC50 (in vitro) | EC50 (HL-60) | Structure (SMILES) |
| --- | --- | --- |
| 0.01 µM | 0.0124 µM | C[C@H]1[C@@H](Oc2ccc(CC(=O)OC(C)(C)C)cc2)O[C@@H]2O[C@@]3(C)CC[C@H]4[C@H](C)CC[C@@H]1[C@@]24OO3 [Compound 132, tert-butyl 2-(4-(((3R,5aS,6R,8aS, 9R,10S,12R, 12aR)-3,6,9-trimethyldeca-hydro-12H-3,12-epoxy[1,2]dioxepino[4,3-i]isochromen-10-yl)oxy)phenyl) acetate] |
| 0.315 µM | 0.257 µM | C[C@H]1[C@H](NCCc2ccccc2)O[C@@H]2O[C@@]3(C)CC[C@H]4[C@H](C)CC[C@@H]1[C@@]24OO3 [Compound 94, (3R,5aS,6R,8aS, 9R,10R,12R, 12aR)-3,6,9-trimethyl-N-phenethyldeca-hydro-12H-3,12-epoxy[1,2] dioxepino[4,3-i] isochromen-10-amine] |
| 8 µM | 0.0244 µM | C[C@H]1[C@@H](Oc2ccc(C(=O)N[C@H]3CC[C@@H](C(=O)O)C3)cc2)O[C@@H]2O[C@@]3(C)CC[C@H]4[C@H](C)CC[C@@H]1[C@@]24OO3 [Compound 134, (1R,3S)-3-(4-(((3R,5aS,6R,8aS, 9R,10S,12R, 12aR)-3,6,9-trimethyldeca-hydro-12H-3,12-epoxy[1,2]dioxepino[4,3-i]isochromen-10-yl)oxy)benzamido)cyclo-pentane-1-carboxylic acid] |
| 0.535 µM | 0.498 µM | C[C@H]1[C@H](NCCCS(C)(=O)=O)O[C@@H]2O[C@@]3(C)CC[C@H]4[C@H](C)CC[C@@H]1[C@@]24OO3 [Compound 100, (3R,5aS,6R,8aS, 9R,10R,12R, 12aR)-3,6,9-trimethyl-N-(3-(methylsulfonyl)propyl)deca-hydro-12H-3,12-epoxy[1,2] dioxepino[4,3-i] isochromen-10-amine] |
| > 20 µM | 4.25 µM | C[C@H]1[C@@H](OC2C3CC(C(=O)O)CC32)O[C@@H]2O[C@@]3(C)CC[C@H]4[C@H](C)CC[C@@H]1[C@@]24OO3 (stereo partly drawn) [Compound 158, 6-(((3R,5aS,6R,8aS, 9R,10S,12R, 12aR)-3,6,9-trimethyldeca-hydro-12H-3,12-epoxy[1,2]dioxepino[4,3-i]isochromen-10-yl)oxy)bicyclo [3.1.0]hexane-3-carboxylic acid] |
| 0.0319 µM | 0.0346 µM | C[C@H]1[C@@H](Oc2ccc(-c3nn[nH]n3)cc2)O[C@@H]2O[C@@]3(C)CC[C@H]4[C@H](C)CC[C@@H]1[C@@]24OO3 [Compound 73, 5-(4-(((3R,5aS,6R, 8aS,9R,10S,12R, 12aR)-3,6,9-trimethyldeca-hydro-12H-3,12-epoxy[1,2]dioxepino[4,3-i]isochromen-10-yl)oxy)phenyl)-2H-tetrazole] |
| 0.66 µM | 0.0445 µM | C[C@H]1[C@@H](OCc2c(Cl)cc(C(=O)O)cc2Cl)O[C@@H]2O[C@@]3(C)CC[C@H]4[C@H](C)CC[C@@H]1[C@@]24OO3 [Compound 177, 3,5-dichloro-4-((((3R,5aS,6R,8aS, 9R,10S,12R, 12aR)-3,6,9-trimethyldeca-hydro-12H-3,12-epoxy[1,2]dioxepino[4,3-i]isochromen-10-yl)oxy)methyl) benzoic acid] |
